Where two headings read alike, the source gives them in different places.
What was measured:
Assay in all cases: in vitro checkerboard method (Schachbrettmethode): MHK and FIC-Index
Assay type in all cases: cell-based
[1] = tested on: Bacillus subtilis ATCC 6633
From the text: (§1) Zur Untersuchung der erfindungsgemäßen Kombination wurden mit typischen Vertretern der grampositiven und gramnegativen Keimgruppen in vitro Versuche durchgeführt. Mit der für Kombinationsversuche üblichen Methode, der sogenannten "Schachbrettmethode" (vgl. "Antibiotics in Laboratory Medicine", Editor Lorian, Baltimore London 1980, Seiten 300-309), wurden sowohl die minimalen Hemmkonzentrationen (MHK) als auch die Hemmgrenzen in den einzelnen Kombinationen bestimmt. Das Endergebnis wurde als FIC-Index (Fractional Inhibitory Concentration Index) ausgedrückt. Der FIC-Index berechnet sich nach folgender Formel: [formula]
(§2) Hierbei ist A bzw. B die niedrigste Konzentration der Verbindungen A bzw. B, die in Kombination mit der Verbindung B bzw. A eine Hemmwirkung zeigt. Dieser Wert wird durch die MHK der Verbindung A bzw. B dividiert. Der so erhaltene FIC-Index gibt Aufschluß über die Interaktionen von zwei Verbindungen in ihrer antibakteriellen Wirkung. FIC-Index-Zahlen, die kleiner als 1 sind, drücken eine synergistische Wirkung aus. Die mit dieser Methode ermittelten Resultate sind in den nachstehenden Tabellen zusammengestellt.
(§3) In den nachstehenden Tabellen sind in den ersten beiden Spalten die minimalen Hemmkonzentrationen der geprüften Verbindungen in Mikrogramm pro Milliliter aufgeführt. In einigen Fällen sind abweichende Konzentrationseinheiten angegeben, z.B. Nanogramm [ng] oder Milligramm [mg] pro Milliliter. Wenn ein FIC-Index nicht angegeben wurde, so bedeutet dies, daß aufgrund der Unwirksamkeit des einen Wirkstoffes keine Grenze zu ermitteln war.

E. coli 0 86 = conditions: Escherichia coli, 086, single substance, ng per millilitre (b7)
From the text: as §1, §2, §3

Hafnia alvei ATCC 11604 = tested on: Hafnia alvei ATCC 11604
From the text: as §1, §2, §3

[2] = tested on: Klebsiella pneumoniae A 9977
From the text: as §1, §2, §3

[3] = tested on: Micrococcus luteus ATCC 9341
From the text: as §1, §2, §3

Proteus rettgeri 936 = conditions: single substance; for MIC: Providencia rettgeri, 936, in vitro
From the text: as §1, §2, §3

Salmonella oranienburg = conditions: Salmonella enterica, single substance
From the text: as §1, §2, §3

Salmonella paratyphi A = conditions: Salmonella enterica, read-out: MHK
From the text: as §1, §2, §3

Salmonella typhimurium = conditions: for MIC: Salmonella enterica, TYPHIMURIUM, read-out: MHK
From the text: as §1, §2, §3

Strept. faecium D = conditions: Enterococcus faecium, single substance
From the text: as §1, §2, §3

Strept. pyogenes A 77 = conditions: Streptococcus pyogenes, A77, single substance
From the text: as §1, §2, §3

Enterobacter cloacae = conditions: read-out: MHK
From the text: as §1, §2, §3

Pseud. aeruginosa 1771 m = conditions: single substance; for MIC: Pseudomonas aeruginosa, 1771M
From the text: as §1, §2, §3

[4] = tested on: Pseud. aeruginosa ATCC 9027; conditions: Pseudomonas aeruginosa, ATCC9027, in vitro, single substance
From the text: as §1, §2, §3

[5] = tested on: Pseud. aeruginosa NCTC 10701; conditions: Pseudomonas aeruginosa, NCTC10701, in vitro, single substance
From the text: as §1, §2, §3

Staph. aureus SG 511 = conditions: Staphylococcus aureus, SG511, single substance
From the text: as §1, §2, §3

E. coli 0 55 = conditions: single substance; for MIC: Escherichia coli, 055, in vitro
From the text: as §1, §2, §3

E. coli TEM = conditions: Escherichia coli, read-out: MHK
From the text: as §1, §2, §3

[6] = tested on: Serratia marcescens A 20019; conditions: single substance; for MIC: Serratia marcescens, A20019, in vitro
From the text: as §1, §2, §3

[7] = tested on: Serratia marcescens A 20460; conditions: for MIC: Serratia marcescens
From the text: as §1, §2, §3

[8] = ATCC9341, in vitro, single substance, Micrococcus luteus ATCC 9341, read-out: MHK
[9] = in vitro, single substance, Salmonella typhimurium

| Structure (SMILES) | MIC (E. coli 0 86) [µg/mL] | MIC [3, 8] [µg/mL] | MIC (Proteus rettgeri 936; ng per millilitre (b7)) [µg/mL] | MIC (Salmonella oranienburg; ng per millilitre (b7)) [µg/mL] | MIC (Salmonella paratyphi A) [µg/mL] | MIC (Strept. faecium D) [µg/mL] | MIC (Strept. pyogenes A 77) [µg/mL] | MIC (Pseud. aeruginosa 1771 m) [µg/mL] | MIC [4] [µg/mL] | MIC [5] [µg/mL] | MIC (Staph. aureus SG 511) [µg/mL] | MIC (Strept. pyogenes A 77; mg per millilitre (b7)) [µg/mL] | MIC (E. coli TEM) [µg/mL] | also measured |
| --- | --- | --- | --- | --- | --- | --- | --- | --- | --- | --- | --- | --- | --- | --- |
| CCn1cc(C(=O)O)c(=O)c2cc3occc3nc21 [OFNC, 5-Äthyl-5,8-dihydro-8-oxofuran(3,2-b)(1,8)-naphthyridin-7-carbonsäure] | 0.0625 | 31.2 | 0.0312 | 0.0781 | 0.0391 | 31.2 | 125 | – | – | – | – | – | – | MIC ([1]; ATCC6633, in vitro, single substance, Bacillus subtilis ATCC 6633, ng per millilitre (b7), read-out: MHK): 0.0488 µg/mL; MIC (Hafnia alvei ATCC 11604; ATCC11604, in vitro, single substance, Hafnia alvei ATCC 11604, ng per millilitre (b7), read-out: MHK): 0.0391 µg/mL; MIC ([2]; A9977, in vitro, single substance, Klebsiella pneumoniae A 9977, ng per millilitre (b7), read-out: MHK): 0.0781 µg/mL; MIC (Salmonella typhimurium; in vitro, single substance, Salmonella typhimurium, ng per millilitre (b7)): 0.0781 µg/mL |
| COn1cc(C(=O)O)c(=O)c2cc3c(cc21)OCO3 [Miloxacin] | – | – | – | – | – | – | – | 50 | 25 | 31.2 | 6.25 | > 1000 | – | MIC (Enterobacter cloacae; in vitro, single substance): 2.5 µg/mL; MIC ([3]; ATCC9341, in vitro, single substance, Micrococcus luteus ATCC 9341, mg per millilitre (b7), read-out: MHK): > 1000 µg/mL; MIC (Strept. faecium D; mg per millilitre (b7)): > 1000 µg/mL |
| CCn1cc(C(=O)O)c(=O)c2cc(F)c(N3CCNCC3)cc21 [Norfloxacin] | 0.0391 | 12.5 | 0.0781 | 0.0781 | 0.0195 | 1.25 | 2.5 | – | – | – | – | – | 0.0391 | MIC (E. coli 0 55; ng per millilitre (b7)): 0.0391 µg/mL; MIC (Hafnia alvei ATCC 11604; Hafnia alvei, ATCC11604, read-out: MHK): 0.0195 µg/mL; MIC (Salmonella typhimurium): 0.0195 µg/mL; MIC ([6]; ng per millilitre (b7)): 0.0781 µg/mL |
| CCOc1ccc2nc3cc(N)ccc3c(N)c2c1 [EAL, Ethacridinlactat] | – | 6.25 | – | – | 12.5 | 12.5 | – | 31.2 | 12.5 | 12.5 | 6.25 | – | 12.5 | MIC (E. coli 0 55): 6.25 µg/mL; MHK (E. coli 0 55; in vitro): 12,5 µg/ml; MIC (Hafnia alvei ATCC 11604; ATCC11604, in vitro, single substance, Hafnia alvei ATCC 11604, read-out: MHK): 62.5 µg/mL; MIC ([2]; A9977, in vitro, single substance, Klebsiella pneumoniae A 9977, read-out: MHK): 125 µg/mL; MIC (Proteus rettgeri 936): 31.2 µg/mL; MHK (Proteus rettgeri 936; in vitro): 62,5 µg/ml; MHK (Pseud. aeruginosa 1771 m): 62,5 µg/ml; MIC (Salmonella oranienburg): 62.5 µg/mL; MIC (Salmonella typhimurium; [9]): 25 µg/mL; MHK (Salmonella typhimurium; [9]): 50,0 µg/ml; MIC ([6]; mg per millilitre (b7)): 1000 µg/mL; MHK ([6]; in vitro, mg per millilitre (b7)): >1,0 mg; MIC ([7]; A20460, in vitro, single substance, Serratia marcescens A 20460, mg per millilitre (b7), read-out: MHK): > 1000 µg/mL; MHK ([7]; in vitro, single substance, Serratia marcescens A 20460, mg per millilitre (b7)): 1,0 mg |
| CCn1cc(C(=O)O)c(=O)c2ccc(C)nc21 [Nalidixinsäure] | – | – | – | – | – | 500 | – | 100 | 500 | 250 | 50 | > 1000 | – | MIC ([1]; Bacillus subtilis, ATCC6633, read-out: MHK): 6.25 µg/mL; MIC (Enterobacter cloacae): 6.25 µg/mL; MIC ([2]; Klebsiella pneumoniae, A9977, read-out: MHK): 6.25 µg/mL; MIC ([3]; Micrococcus luteus, ATCC9341, read-out: MHK): > 1000 µg/mL; MIC ([7]; A20460, read-out: MHK): 6.25 µg/mL |
